# In patent US10760110B2, “Antibiotic testing and screening system” (priority 2017, dated 2020):
# Read-outs that look alike come from different tables or passages of the source.
# Tests used:
# [1] = tested on: K. pneumoniae NVT1001 gyrA/parC and gyrA/parC/ramR mutants and revertants; assay: Etest MIC of quinolones, gyrA/parC and gyrA/parC/ramR mutants and their revertants (Table 11); format: cell-based; conditions: Klebsiella pneumoniae
# Source text: The allelic-exchange method was used to restore the wild-type gene in the K. pneumoniae NVT1001 mutants with constructed chromosome-mediated resistance mechanisms, as described by Tsai et al.^19 Briefly, a DNA fragment of the entire wild-type gene sequence along with flanking regions was amplified from K. pneumoniae NVT1001 using PCR with specific primers. The resulting PCR fragment was digested and then cloned into pUT-KB. For homologous recombination, this plasmid was transformed into E. coli S17-1 λpir^23 via electroporation and mobilized into the K. pneumoniae NVT1001 mutant via conjugation. […] After incubation in 20 mL BHI broth for 6 hours at 37° C. in the absence of kanamycin, the fully grown cultures were spread onto LB agar plates supplemented with 10% sucrose. After the double crossover occurred, the sucrose-resistant and kanamycin-susceptible colonies were selected, and the restoration of the wild-type gene was confirmed via DNA sequencing.
# (§1) The MICs of antibiotics were determined using the Etest (Biodisk AB, Sweden) according to the manufacturer's instructions. The MICs from the Etest, which fall between standard two-fold dilutions, were rounded up to the next highest two-fold value. The MICs of ceftazidime and cefotaxime against K. pneumoniae NVT1001 harbouring the pACYC177 plasmid with blaOXA-48 were further determined using a broth microdilution test according to the recommendations of the CLSI,^25 and the results were interpreted according to the breakpoints established by the CLSI in 2017.^25 Meanwhile, due to the lack of CLSI breakpoints in 2016 and 2017, the results for cephalothin were interpreted according to the breakpoints established by the CLSI in 2015,^26 and the results for moxifloxacin were interpreted according to the breakpoints established by the EUCAST in 2017.^27
# [2] = tested on: K. pneumoniae NVT1001 strains with QnrB, QnrS or AAC(6′)-Ib-cr plasmids; assay: Etest MIC of quinolones, GyrA/ParC mutations, ΔramR and/or QnrB, QnrS or AAC(6′)-Ib-cr (Table 12); format: cell-based; conditions: Klebsiella pneumoniae
# Experimental: DNA fragments of the resistance genes along with their flanking regions were amplified from clinical plasmids via PCR with specific primer pairs. The resulting PCR fragments were digested and then cloned into the plasmid pACYC177 or pACYC184. The resulting plasmids were then transformed into K. pneumoniae strain NVT1001 via electroporation. The recombinant bacteria were plated onto LB agar plates containing kanamycin (50 mg/L) or chloramphenicol (50 mg/L), and the presence of the cloned gene was confirmed via PCR and DNA sequencing.
# as §1
# [3] = S83F/D87N/S80I::F83S/N87D/I80S revertant, read-out: MIC
# [4] = S83F/D87N/S80I::I80S revertant, read-out: MIC
# [5] = S83F/D87N/S80I::N87D revertant, read-out: MIC
# [6] = S83F/D87N/S80I::N87D/I80S revertant, read-out: MIC
# [7] = S83I/D87N/S80I::I80S revertant, read-out: MIC
# [8] = S83I/D87N/S80I::I83S/N87D/I80S revertant, read-out: MIC
# [9] = S83I/D87N/S80I::N87D revertant, read-out: MIC
# [10] = S83I/D87N/S80I::N87D/I80S revertant, read-out: MIC
# [11] = S83L/D87N/S80I::I80S revertant, read-out: MIC
# [12] = S83L/D87N/S80I::L83S/N87D/I80S revertant, read-out: MIC
# [13] = S83L/D87N/S80I::N87D revertant, read-out: MIC
# [14] = S83L/D87N/S80I::N87D/I80S revertant, read-out: MIC
# [15] = S83Y/D87N/S80I::I80S revertant, read-out: MIC
# [16] = S83Y/D87N/S80I::N87D revertant, read-out: MIC
# [17] = S83Y/D87N/S80I::N87D/I80S revertant, read-out: MIC
# [18] = S83Y/D87N/S80I::Y83S/N87D/I80S revertant, read-out: MIC
# [19] = ΔramR/S83I/D87N/S80I:: ramR/I83S revertant
# [20] = ΔramR/S83I/D87N/S80I:: ramR/I83S/I80S revertant
# [21] = ΔramR/S83I/D87N/S80I:: ramR/I83S/N87D revertant
# [22] = ΔramR/S83I/D87N/S80I::I83S/N87D/I80S revertant
# [23] = ΔramR/S83I/D87N/S80I::N87D revertant
# [24] = ΔramR/S83I/D87N/S80I::N87D/I80S revertant
# [25] = ΔramR/S83I/D87N/S80I::ramR/I83S/N87D/I80S
# [26] = AAC(6′)-Ib-cr on pACYC177, S83I mutant
# [27] = AAC(6′)-Ib-cr on pACYC177, S83I/D87N/S80I mutant
# [28] = AAC(6′)-Ib-cr on pACYC177, S83I/S80I mutant
# [29] = AAC(6′)-Ib-cr on pACYC177, WT (NVT1001), read-out: MIC
# [30] = AAC(6′)-Ib-cr on pACYC177, ΔramR mutant
# [31] = AAC(6′)-Ib-cr on pACYC177, ΔramR/S83I mutant
# [32] = AAC(6′)-Ib-cr on pACYC177, ΔramR/S83I/D87N/S80I mutant
# [33] = AAC(6′)-Ib-cr on pACYC177, ΔramR/S83I/S80I mutant
# [34] = QnrB on pACYC177, S83I/D87N/S80I mutant
# [35] = QnrB on pACYC177, S83I/S80I mutant
# [36] = QnrB on pACYC177, WT (NVT1001), read-out: MIC
# [37] = QnrB on pACYC177, ΔramR/S83I mutant
# [38] = QnrB on pACYC177, ΔramR/S83I/D87N/S80I mutant
# [39] = QnrB on pACYC177, ΔramR/S83I/S80I mutant
# [40] = QnrS on pACYC177, S83I/D87N/S80I mutant
# [41] = QnrS on pACYC177, S83I/S80I mutant
# [42] = QnrS on pACYC177, WT (NVT1001), read-out: MIC
# [43] = QnrS on pACYC177, ΔramR/S83I mutant
# [44] = QnrS on pACYC177, ΔramR/S83I/D87N/S80I mutant
# [45] = QnrS on pACYC177, ΔramR/S83I/S80I mutant
# [46] = no supplemental plasmid, S83I mutant
# [47] = no supplemental plasmid, S83I/D87N/S80I mutant
# [48] = no supplemental plasmid, S83I/S80I mutant
# [49] = no supplemental plasmid, WT (NVT1001), read-out: MIC
# [50] = no supplemental plasmid, ΔramR mutant
# [51] = no supplemental plasmid, ΔramR/S83I mutant
# [52] = no supplemental plasmid, ΔramR/S83I/D87N/S80I mutant
# [53] = no supplemental plasmid, ΔramR/S83I/S80I mutant
smiles,measurement,setting,value
"COc1c(N2C[C@@H]3CCCN[C@@H]3C2)c(F)cc2c(=O)c(C(=O)O)cn(C3CC3)c12 [Moxifloxacin, moxifloxacin]",MIC,[1]; S83F/D87N/S80I mutant,32 µg/mL
same,MIC,[1]; [3],0.125 µg/mL
same,MIC,[1]; [4],1 µg/mL
same,MIC,[1]; [5],0.5 µg/mL
same,MIC,[1]; [6],0.5 µg/mL
same,MIC,[1]; S83I/D87N/S80I mutant,> 32 µg/mL
same,MIC,[1]; [7],1 µg/mL
same,MIC,[1]; [8],0.125 µg/mL
same,MIC,[1]; [9],4 µg/mL
same,MIC,[1]; [10],1 µg/mL
same,MIC,[1]; S83L/D87N/S80I mutant,32 µg/mL
same,MIC,[1]; [11],1 µg/mL
same,MIC,[1]; [12],0.125 µg/mL
same,MIC,[1]; [13],1 µg/mL
same,MIC,[1]; [14],0.5 µg/mL
same,MIC,[1]; S83Y/D87N/S80I mutant,32 µg/mL
same,MIC,[1]; [15],0.5 µg/mL
same,MIC,[1]; [16],0.5 µg/mL
same,MIC,[1]; [17],0.5 µg/mL
same,MIC,[1]; [18],0.125 µg/mL
same,MIC,[1]; ΔramR/S83I/D87N/S80I mutant,> 32 µg/mL
same,MIC,[1]; [19],1 µg/mL
same,MIC,[1]; [20],0.5 µg/mL
same,MIC,[1]; [21],0.25 µg/mL
same,MIC,[1]; [22],1 µg/mL
same,MIC,[1]; [23],> 32 µg/mL
same,MIC,[1]; [24],8 µg/mL
same,MIC,[1]; [25],0.125 µg/mL
same,MIC,[2]; [26],1 µg/mL
same,MIC,[2]; [27],> 32 µg/mL
same,MIC,[2]; [28],8 µg/mL
same,MIC,[2]; [29],0.125 µg/mL
same,MIC,[2]; [30],1 µg/mL
same,MIC,[2]; [31],16 µg/mL
same,MIC,[2]; [32],> 32 µg/mL
same,MIC,[2]; [33],> 32 µg/mL
same,MIC,"[2]; QnrB on pACYC177, S83I mutant",8 µg/mL
same,MIC,[2]; [34],> 32 µg/mL
same,MIC,[2]; [35],> 32 µg/mL
same,MIC,[2]; [36],2 µg/mL
same,MIC,"[2]; QnrB on pACYC177, ΔramR mutant",> 32 µg/mL
same,MIC,[2]; [37],> 32 µg/mL
same,MIC,[2]; [38],> 32 µg/mL
same,MIC,[2]; [39],> 32 µg/mL
same,MIC,"[2]; QnrS on pACYC177, S83I mutant",8 µg/mL
same,MIC,[2]; [40],> 32 µg/mL
same,MIC,[2]; [41],> 32 µg/mL
same,MIC,[2]; [42],1 µg/mL
same,MIC,"[2]; QnrS on pACYC177, ΔramR mutant",> 32 µg/mL
same,MIC,[2]; [43],> 32 µg/mL
same,MIC,[2]; [44],> 32 µg/mL
same,MIC,[2]; [45],> 32 µg/mL
same,MIC,[2]; [46],1 µg/mL
same,MIC,[2]; [47],> 32 µg/mL
same,MIC,[2]; [48],8 µg/mL
same,MIC,[2]; [49],0.125 µg/mL
same,MIC,[2]; [50],1 µg/mL
same,MIC,[2]; [51],8 µg/mL
same,MIC,[2]; [52],> 32 µg/mL
same,MIC,[2]; [53],> 32 µg/mL
"CCn1cc(C(=O)O)c(=O)c2ccc(C)nc21 [Nalidixic acid, nalidixic acid]",MIC,[1]; S83F/D87N/S80I mutant,> 256 µg/mL
same,MIC,[1]; [3],4 µg/mL
same,MIC,[1]; [4],> 256 µg/mL
same,MIC,[1]; [5],> 256 µg/mL
same,MIC,[1]; [6],> 256 µg/mL
same,MIC,[1]; S83I/D87N/S80I mutant,> 256 µg/mL
same,MIC,[1]; [7],> 256 µg/mL
same,MIC,[1]; [8],4 µg/mL
same,MIC,[1]; [9],> 256 µg/mL
same,MIC,[1]; [10],> 256 µg/mL
same,MIC,[1]; S83L/D87N/S80I mutant,> 256 µg/mL
same,MIC,[1]; [11],> 256 µg/mL
same,MIC,[1]; [12],4 µg/mL
same,MIC,[1]; [13],> 256 µg/mL
same,MIC,[1]; [14],> 256 µg/mL
same,MIC,[1]; S83Y/D87N/S80I mutant,> 256 µg/mL
same,MIC,[1]; [15],> 256 µg/mL
same,MIC,[1]; [16],> 256 µg/mL
same,MIC,[1]; [17],> 256 µg/mL
same,MIC,[1]; [18],8 µg/mL
same,MIC,[1]; ΔramR/S83I/D87N/S80I mutant,> 256 µg/mL
same,MIC,[1]; [19],> 256 µg/mL
same,MIC,[1]; [20],> 256 µg/mL
same,MIC,[1]; [21],8 µg/mL
same,MIC,[1]; [22],32 µg/mL
same,MIC,[1]; [23],> 256 µg/mL
same,MIC,[1]; [24],> 256 µg/mL
same,MIC,[1]; [25],8 µg/mL
same,MIC,[2]; [26],> 256 µg/mL
same,MIC,[2]; [27],> 256 µg/mL
same,MIC,[2]; [28],> 256 µg/mL
same,MIC,[2]; [29],4 µg/mL
same,MIC,[2]; [30],64 µg/mL
same,MIC,[2]; [31],> 256 µg/mL
same,MIC,[2]; [32],> 256 µg/mL
same,MIC,[2]; [33],> 256 µg/mL
same,MIC,"[2]; QnrB on pACYC177, S83I mutant",> 256 µg/mL
same,MIC,[2]; [34],> 256 µg/mL
same,MIC,[2]; [35],> 256 µg/mL
same,MIC,[2]; [36],32 µg/mL
same,MIC,"[2]; QnrB on pACYC177, ΔramR mutant",256 µg/mL
same,MIC,[2]; [37],> 256 µg/mL
same,MIC,[2]; [38],> 256 µg/mL
same,MIC,[2]; [39],> 256 µg/mL
same,MIC,"[2]; QnrS on pACYC177, S83I mutant",> 256 µg/mL
same,MIC,[2]; [40],> 256 µg/mL
same,MIC,[2]; [41],> 256 µg/mL
same,MIC,[2]; [42],16 µg/mL
same,MIC,"[2]; QnrS on pACYC177, ΔramR mutant",64 µg/mL
same,MIC,[2]; [43],> 256 µg/mL
same,MIC,[2]; [44],> 256 µg/mL
same,MIC,[2]; [45],> 256 µg/mL
same,MIC,[2]; [46],> 256 µg/mL
same,MIC,[2]; [47],> 256 µg/mL
same,MIC,[2]; [48],> 256 µg/mL
same,MIC,[2]; [49],4 µg/mL
same,MIC,[2]; [50],32 µg/mL
same,MIC,[2]; [51],> 256 µg/mL
same,MIC,[2]; [52],> 256 µg/mL
same,MIC,[2]; [53],> 256 µg/mL
